Measured values published in patent publication US20230365546A1, “5-SUBSTITUTED INDOLE 3-AMIDE DERIVATIVES, PREPARATION METHOD AND USE THEREOF” (ORIGIANT PHARMACEUTICAL CO., LTD, priority 2020, published 2023).

Experiments:
Assay in all cases: Kinase Profiler 10 μM panel
Arg(m) = Arg(m) (Mus musculus (Mouse), UniProt Q4JIM5)
Experimental: (§1) In vitro kinase assays were conducted using Kinase Profiler services provided by Eurofins. The experimental method was as follows: the small molecule compound to be tested (0.001-10 μM), the protein kinase to be tested were incubated with a buffer containing substrate, 10 mM magnesium acetate, and [γ-^33P-ATP], the reaction was started by adding Mg\TPmix, after incubation for a period of time at room temperature, a 3% phosphate solution was added to the buffer to stop the reaction. Subsequently, 10 μL of the reaction mixture was quantitatively pipetted onto P30 filter paper, which was washed three times with 75 mM phosphate solution and then once with methanol. The P30 filter paper was air-dried and scintillation fluid was added for scintillation counting.

Ret(h) = Ret(h) (Homo sapiens (Human), UniProt P07949)
Experimental: as §1

Tie2 (h) = Tie2 (h) (Homo sapiens (Human), UniProt Q02763)
Experimental: as §1

DCAMKL2(h) = DCAMKL2(h) (Homo sapiens (Human), UniProt Q8N568)
Experimental: as §1

PIP4K2a(h) = PIP4K2a(h) (Homo sapiens (Human), UniProt P48426)
PIP4K2a(h), sequence (P48426 whole entry): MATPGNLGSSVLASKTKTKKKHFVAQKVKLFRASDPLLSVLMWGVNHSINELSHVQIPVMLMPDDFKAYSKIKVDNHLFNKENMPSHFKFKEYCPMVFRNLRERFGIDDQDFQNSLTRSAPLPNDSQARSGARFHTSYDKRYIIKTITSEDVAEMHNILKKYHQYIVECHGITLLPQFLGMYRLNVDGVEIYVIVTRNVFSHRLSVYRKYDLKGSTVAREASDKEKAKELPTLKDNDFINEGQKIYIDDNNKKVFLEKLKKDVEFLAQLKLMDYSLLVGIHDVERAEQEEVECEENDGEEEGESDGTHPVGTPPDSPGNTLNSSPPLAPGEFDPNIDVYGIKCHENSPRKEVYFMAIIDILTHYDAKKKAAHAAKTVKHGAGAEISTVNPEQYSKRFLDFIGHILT
Experimental: as §1

PKBβ(h) = PKBβ(h) (Homo sapiens (Human), UniProt P31751)
Experimental: as §1

MSK2(h) = MSK2(h) (Homo sapiens (Human), UniProt O75676)
Experimental: as §1

Tec(h) activated = Tec(h) activated (Homo sapiens (Human), UniProt P42680)
Tec(h) activated, sequence (P42680 whole entry): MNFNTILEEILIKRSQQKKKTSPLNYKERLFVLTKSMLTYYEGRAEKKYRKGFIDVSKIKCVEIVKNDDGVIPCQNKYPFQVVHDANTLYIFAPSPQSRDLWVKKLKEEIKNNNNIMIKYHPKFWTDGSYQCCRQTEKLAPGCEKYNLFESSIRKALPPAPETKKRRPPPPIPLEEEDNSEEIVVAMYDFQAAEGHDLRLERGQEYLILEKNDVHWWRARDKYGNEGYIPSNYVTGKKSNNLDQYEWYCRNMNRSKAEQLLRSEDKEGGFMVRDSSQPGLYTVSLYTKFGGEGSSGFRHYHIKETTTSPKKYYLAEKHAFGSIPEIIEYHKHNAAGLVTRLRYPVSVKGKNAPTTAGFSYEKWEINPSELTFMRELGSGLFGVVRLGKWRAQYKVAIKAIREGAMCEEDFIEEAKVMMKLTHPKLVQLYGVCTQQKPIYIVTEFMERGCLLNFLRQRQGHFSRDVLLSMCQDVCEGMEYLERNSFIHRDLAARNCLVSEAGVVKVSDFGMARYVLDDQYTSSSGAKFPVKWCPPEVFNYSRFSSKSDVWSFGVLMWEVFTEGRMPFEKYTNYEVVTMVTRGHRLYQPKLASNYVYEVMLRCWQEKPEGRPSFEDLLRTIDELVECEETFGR
Experimental: as §1

Abl (M351T)(h) = Abl (M351T)(h) (Homo sapiens (Human), UniProt P00519, M351T)
Experimental: as §1

ULK2(h) = ULK2(h) (Homo sapiens (Human), UniProt Q8IYT8)
Experimental: as §1

CRIK(h) = CRIK(h) (Homo sapiens (Human), UniProt O14578)
Experimental: as §1

EGFR(L858R)(h) = EGFR(L858R)(h) (Homo sapiens (Human), UniProt P00533, L858R)
Experimental: as §1

Ron(h) = Ron(h) (Homo sapiens (Human), UniProt Q04912)
Experimental: as §1

HIPK3(h) = HIPK3(h) (Homo sapiens (Human), UniProt Q9H422)
Experimental: as §1

PrKX(h) = PrKX(h) (Homo sapiens (Human), UniProt P51817)
Experimental: as §1

ZAP-70(h) = ZAP-70(h) (Homo sapiens (Human), UniProt P43403)
Experimental: as §1

IKKa(h) = IKKa(h) (Homo sapiens (Human), UniProt O15111)
Experimental: as §1

SNRK(h) = SNRK(h) (Homo sapiens (Human), UniProt Q9NRH2)
Experimental: as §1

TLK1(h) = TLK1(h) (Homo sapiens (Human), UniProt Q9UKI8)
Experimental: as §1

STK33(h) = STK33(h) (Homo sapiens (Human), UniProt Q9BYT3)
Experimental: as §1

PKCϵ(h) = PKCϵ(h) (Homo sapiens (Human), UniProt Q02156)
PKCϵ(h), sequence (Q02156 whole entry): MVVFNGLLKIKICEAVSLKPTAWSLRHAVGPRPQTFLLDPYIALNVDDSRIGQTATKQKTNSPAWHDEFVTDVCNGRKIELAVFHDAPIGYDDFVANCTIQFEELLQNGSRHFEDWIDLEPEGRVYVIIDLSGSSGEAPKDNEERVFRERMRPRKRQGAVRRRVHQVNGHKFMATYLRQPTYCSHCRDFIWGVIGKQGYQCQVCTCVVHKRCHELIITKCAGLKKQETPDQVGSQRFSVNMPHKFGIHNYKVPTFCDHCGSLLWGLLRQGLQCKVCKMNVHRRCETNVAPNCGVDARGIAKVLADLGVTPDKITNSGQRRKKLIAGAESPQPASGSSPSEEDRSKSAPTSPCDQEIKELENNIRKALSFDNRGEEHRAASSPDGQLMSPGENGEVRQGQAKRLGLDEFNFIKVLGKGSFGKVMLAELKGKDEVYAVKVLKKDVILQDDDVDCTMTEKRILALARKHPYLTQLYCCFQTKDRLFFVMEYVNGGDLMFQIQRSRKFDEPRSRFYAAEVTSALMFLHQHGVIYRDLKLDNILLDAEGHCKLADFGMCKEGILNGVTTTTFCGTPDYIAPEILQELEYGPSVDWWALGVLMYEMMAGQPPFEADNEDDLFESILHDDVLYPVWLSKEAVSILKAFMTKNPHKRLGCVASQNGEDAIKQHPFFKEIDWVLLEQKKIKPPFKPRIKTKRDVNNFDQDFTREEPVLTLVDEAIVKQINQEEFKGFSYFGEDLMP
Experimental: as §1

NEK6(h) = NEK6(h) (Homo sapiens (Human), UniProt Q9HC98)
Experimental: as §1

ROCK-II(r) = ROCK-II(r) (Rattus norvegicus (Rat), UniProt Q62868)
Experimental: as §1

Fms(Y969C)(h) = Fms(Y969C)(h) (Homo sapiens (Human), UniProt P07333, Y969C)
Experimental: as §1

EphA2(h) = EphA2(h) (Homo sapiens (Human), UniProt P29317)
EphA2(h), sequence (P29317 24-976): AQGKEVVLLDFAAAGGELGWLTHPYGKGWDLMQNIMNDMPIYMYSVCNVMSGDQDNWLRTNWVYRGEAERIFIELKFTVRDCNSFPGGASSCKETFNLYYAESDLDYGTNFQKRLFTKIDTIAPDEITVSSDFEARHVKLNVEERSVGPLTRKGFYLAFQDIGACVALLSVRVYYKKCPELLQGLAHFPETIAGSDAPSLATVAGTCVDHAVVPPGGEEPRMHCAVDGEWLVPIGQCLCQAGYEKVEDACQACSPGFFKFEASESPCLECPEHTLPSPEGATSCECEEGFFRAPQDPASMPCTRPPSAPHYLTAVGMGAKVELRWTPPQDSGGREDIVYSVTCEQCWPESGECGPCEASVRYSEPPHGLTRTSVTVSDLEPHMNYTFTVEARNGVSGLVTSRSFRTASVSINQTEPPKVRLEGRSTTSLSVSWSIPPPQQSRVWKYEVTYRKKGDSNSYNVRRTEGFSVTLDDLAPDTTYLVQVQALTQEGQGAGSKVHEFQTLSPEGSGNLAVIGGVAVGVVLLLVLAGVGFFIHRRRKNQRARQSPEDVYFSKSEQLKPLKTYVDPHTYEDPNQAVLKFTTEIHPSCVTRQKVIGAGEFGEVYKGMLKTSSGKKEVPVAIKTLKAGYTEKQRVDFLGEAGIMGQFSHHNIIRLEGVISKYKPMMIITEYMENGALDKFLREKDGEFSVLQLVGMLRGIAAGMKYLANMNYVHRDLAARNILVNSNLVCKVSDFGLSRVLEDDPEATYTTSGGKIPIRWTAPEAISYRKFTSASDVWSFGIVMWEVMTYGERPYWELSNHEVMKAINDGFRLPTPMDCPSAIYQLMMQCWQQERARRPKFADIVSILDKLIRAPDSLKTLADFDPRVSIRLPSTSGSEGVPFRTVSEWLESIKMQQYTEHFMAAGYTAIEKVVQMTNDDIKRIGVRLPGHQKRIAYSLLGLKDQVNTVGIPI
Experimental: as §1

GCK(h) = GCK(h) (Homo sapiens (Human), UniProt Q12851)
Experimental: as §1

Met(D1246N)(h) = Met(D1246N)(h) (Homo sapiens (Human), UniProt P08581, D1228N)
Met(D1246N)(h), sequence (P08581 956-1390 D1228N limits assumed): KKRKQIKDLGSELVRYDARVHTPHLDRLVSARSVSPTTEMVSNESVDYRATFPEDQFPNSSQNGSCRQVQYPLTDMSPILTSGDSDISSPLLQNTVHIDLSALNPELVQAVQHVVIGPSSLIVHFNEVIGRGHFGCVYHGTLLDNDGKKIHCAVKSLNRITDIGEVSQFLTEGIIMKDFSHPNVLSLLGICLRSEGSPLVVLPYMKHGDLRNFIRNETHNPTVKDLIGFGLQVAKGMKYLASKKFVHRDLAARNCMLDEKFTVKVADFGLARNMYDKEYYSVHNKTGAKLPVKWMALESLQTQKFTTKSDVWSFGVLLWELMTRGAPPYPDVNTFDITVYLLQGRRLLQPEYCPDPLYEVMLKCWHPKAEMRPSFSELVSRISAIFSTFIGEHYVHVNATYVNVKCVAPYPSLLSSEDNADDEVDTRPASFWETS
Experimental: as §1

JNK3(h) = JNK3(h) (Homo sapiens (Human), UniProt P53779)
Experimental: as §1

JNK2α2(h) = JNK2α2(h) (Homo sapiens (Human), UniProt P45984)
Experimental: as §1

TSSK1(h) = TSSK1(h) (Homo sapiens (Human), UniProt Q9BXA7)
Experimental: as §1

Syk(h) = Syk(h) (Homo sapiens (Human), UniProt P43405)
Experimental: as §1

Blk(h) = Blk(h) (Homo sapiens (Human), UniProt P51451)
Experimental: as §1

RIPK2(h) = RIPK2(h) (Homo sapiens (Human), UniProt O43353)
RIPK2(h), sequence (O43353 whole entry): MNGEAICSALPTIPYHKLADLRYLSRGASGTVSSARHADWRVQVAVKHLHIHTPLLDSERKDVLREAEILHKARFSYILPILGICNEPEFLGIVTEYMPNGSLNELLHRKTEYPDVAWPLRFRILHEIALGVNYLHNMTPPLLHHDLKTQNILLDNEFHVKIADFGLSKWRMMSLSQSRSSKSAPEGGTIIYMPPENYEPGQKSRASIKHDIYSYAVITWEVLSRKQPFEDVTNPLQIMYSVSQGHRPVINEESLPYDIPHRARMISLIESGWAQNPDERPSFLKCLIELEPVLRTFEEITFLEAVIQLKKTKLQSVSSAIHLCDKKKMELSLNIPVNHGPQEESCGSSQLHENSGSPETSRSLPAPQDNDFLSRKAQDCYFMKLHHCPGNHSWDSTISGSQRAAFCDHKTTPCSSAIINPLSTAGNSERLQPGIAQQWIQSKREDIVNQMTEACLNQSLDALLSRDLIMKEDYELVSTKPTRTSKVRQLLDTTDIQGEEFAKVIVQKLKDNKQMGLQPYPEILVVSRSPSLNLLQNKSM
Experimental: as §1

[1] = molecular target: PI3 Kinase (p110d/p85a)(h) (Homo sapiens (Human), UniProt O00329)
Experimental: as §1

Tie2 (h), sequence (Q02763 23-1124): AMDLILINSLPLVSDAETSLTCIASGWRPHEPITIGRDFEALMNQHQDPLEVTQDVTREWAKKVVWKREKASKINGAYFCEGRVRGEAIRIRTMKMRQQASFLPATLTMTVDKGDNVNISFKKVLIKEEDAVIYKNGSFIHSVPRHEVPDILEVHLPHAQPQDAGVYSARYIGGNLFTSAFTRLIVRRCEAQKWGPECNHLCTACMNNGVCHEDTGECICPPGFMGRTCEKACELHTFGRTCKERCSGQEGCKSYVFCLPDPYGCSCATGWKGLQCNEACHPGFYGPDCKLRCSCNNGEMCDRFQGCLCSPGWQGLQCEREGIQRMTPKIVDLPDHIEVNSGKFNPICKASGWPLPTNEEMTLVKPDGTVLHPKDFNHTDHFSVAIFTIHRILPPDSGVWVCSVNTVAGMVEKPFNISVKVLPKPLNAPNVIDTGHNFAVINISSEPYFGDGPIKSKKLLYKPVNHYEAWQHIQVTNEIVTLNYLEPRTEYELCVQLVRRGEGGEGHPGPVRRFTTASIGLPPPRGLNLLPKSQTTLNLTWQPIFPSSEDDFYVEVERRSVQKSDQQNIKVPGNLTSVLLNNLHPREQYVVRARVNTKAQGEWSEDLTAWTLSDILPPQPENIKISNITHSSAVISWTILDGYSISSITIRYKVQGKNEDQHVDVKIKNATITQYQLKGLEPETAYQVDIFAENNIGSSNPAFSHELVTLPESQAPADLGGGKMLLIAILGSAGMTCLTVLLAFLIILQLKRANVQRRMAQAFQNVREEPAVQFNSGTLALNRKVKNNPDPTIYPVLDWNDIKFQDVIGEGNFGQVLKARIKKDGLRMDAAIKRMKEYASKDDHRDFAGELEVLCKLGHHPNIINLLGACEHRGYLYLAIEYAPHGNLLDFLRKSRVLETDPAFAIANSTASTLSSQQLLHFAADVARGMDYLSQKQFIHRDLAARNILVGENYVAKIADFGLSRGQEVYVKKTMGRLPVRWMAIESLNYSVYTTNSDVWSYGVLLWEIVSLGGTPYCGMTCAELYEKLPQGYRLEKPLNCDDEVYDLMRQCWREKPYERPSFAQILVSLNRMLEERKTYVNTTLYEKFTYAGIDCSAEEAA

`C[C@H](NC(=O)c1cn(C)c2ccc(-c3ccn4nc(NC(=O)C5CC5)nc4c3)cc12)c1cccc(F)c1` [Compound 94, (S)-5-(2-(cyclopropanecarboxamido)-[1,2,4]triazolo[1,5-a]pyridin-7-yl)-N-(1-(3-fluorophenyl)ethyl)-1-methyl-1H-indole-3-carboxamide] showed an Inhibition ratio/% (Arg(m)) of 11%, an Inhibition ratio/% (Ret(h)) of 50% and an Inhibition ratio/% (Tie2 (h)) of 30%. The Inhibition ratio/% (DCAMKL2(h)) was 74%, the Inhibition ratio/% (PIP4K2a(h)) was 7% and the Inhibition ratio/% (PKBβ(h)) was −8%. For the same compound, the Inhibition ratio/% (MSK2(h)) was 9%, the Inhibition ratio/% (Tec(h) activated) was −20% and the Inhibition ratio/% (Abl (M351T)(h)) was 29%. It also gave an Inhibition ratio/% (ULK2(h)) of 55%, an Inhibition ratio/% (CRIK(h)) of −7% and an Inhibition ratio/% (EGFR(L858R)(h)) of −5%. It also gave an Inhibition ratio/% (Ron(h)) of 17%, an Inhibition ratio/% (HIPK3(h)) of 62% and an Inhibition ratio/% (PrKX(h)) of −10%. It also gave an Inhibition ratio/% (ZAP-70(h)) of 1%, an Inhibition ratio/% (IKKa(h); IKKα(h)) of 29% and an Inhibition ratio/% (SNRK(h)) of 25%. The Inhibition ratio/% (TLK1(h)) was 11%, the Inhibition ratio/% (STK33(h)) was 23% and the Inhibition ratio/% (PKCϵ(h)) was 35%. The Inhibition ratio/% (NEK6(h)) was 23%, the Inhibition ratio/% (ROCK-II(r)) was 52% and the Inhibition ratio/% (Fms(Y969C)(h)) was 13%. The Inhibition ratio/% (EphA2(h)) was 15%, the Inhibition ratio/% (GCK(h)) was −6% and the Inhibition ratio/% (Met(D1246N)(h)) was −11%. It also gave an Inhibition ratio/% (JNK3(h)) of 40%, an Inhibition ratio/% (JNK2α2(h)) of 40% and an Inhibition ratio/% (TSSK1(h)) of −8%. For the same compound, the Inhibition ratio/% (Syk(h)) was 69%, the Inhibition ratio/% (Blk(h)) was 65% and the Inhibition ratio/% (RIPK2(h)) was −7%. For the same compound, the Inhibition ratio/% [1] was −1%.
With `C[C@H](NC(=O)c1c[nH]c2ccc(-c3ccc4nc(NC(=O)C5CC5)sc4c3)cc12)c1cccc(F)c1` [Compound 34, (S)-5-(2-(cyclopropanecarboxamido)benzo[d]thiazol-6-yl)-N-(1-(3-fluorophenyl)ethyl)-1H-indole-3-carboxamide] the Inhibition ratio (Arg(m)) was 87%, the Inhibition ratio (Ret(h)) was 96% and the Inhibition ratio (Tie2 (h)) was 96%. For the same compound, the Inhibition ratio (DCAMKL2(h)) was 6%, the Inhibition ratio (PIP4K2a(h)) was 17% and the Inhibition ratio (PKBβ(h)) was 12%. For the same compound, the Inhibition ratio (MSK2(h)) was 23%, the Inhibition ratio (Tec(h) activated) was 17% and the Inhibition ratio (Abl (M351T)(h)) was 97%. For the same compound, the Inhibition ratio (ULK2(h)) was 13%, the Inhibition ratio (CRIK(h)) was 5% and the Inhibition ratio (EGFR(L858R)(h)) was 65%. The Inhibition ratio (Ron(h)) was 44%, the Inhibition ratio (HIPK3(h)) was 79% and the Inhibition ratio (PrKX(h)) was 6%. It also gave an Inhibition ratio (ZAP-70(h)) of 8%, an Inhibition ratio (IKKa(h); IKKa(h)) of 5% and an Inhibition ratio (SNRK(h)) of −24%. For the same compound, the Inhibition ratio (TLK1(h)) was 19%, the Inhibition ratio (STK33(h)) was 4% and the Inhibition ratio (PKCϵ(h)) was −8%. For the same compound, the Inhibition ratio (NEK6(h)) was 4%, the Inhibition ratio (ROCK-II(r)) was 12% and the Inhibition ratio (Fms(Y969C)(h)) was 18%. It also gave an Inhibition ratio (EphA2(h)) of 38%, an Inhibition ratio (GCK(h)) of 62% and an Inhibition ratio (Met(D1246N)(h)) of 86%. It also gave an Inhibition ratio (JNK3(h)) of 63%, an Inhibition ratio (JNK2α2(h)) of 25% and an Inhibition ratio (TSSK1(h)) of 12%. It also gave an Inhibition ratio (Syk(h)) of 98%, an Inhibition ratio (Blk(h)) of 65% and an Inhibition ratio (RIPK2(h)) of 67%. The Inhibition ratio [1] was 54%.
